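1) Cells in 96-well plates. 2) Compound, 48 h, 5 concentrations. 3) Linear interpolation between surrounding doses. 4) Unreached endpoint = highest concentration. Abbreviation: GI50, concentration required for 50% inhibition of growth.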 Calls of active or inactive are those of the source. No stated cut-off is given here; in the data, active = GI50 up to about 1.1 µM and inactive = higher.
Tests used:
Assay in all cases: DTP human tumour cell line panel, 48 h
[1] = test system: SF-295
[2] = test system: CCRF-CEM
[3] = test system: OVCAR-5
[4] = test system: SF-268
[5] = test system: HCT-15
[6] = test system: DMS-273
[7] = test system: SNB-78
[8] = test system: SF-539
[9] = test system: SK-OV-3
[10] = test system: SN12C
[11] = test system: HCT-116
[12] = test system: 786-0
[13] = test system: OVCAR-3
[14] = test system: SNB-75
[15] = test system: NCI-H226
[16] = test system: A498
[17] = test system: OVCAR-4
[18] = test system: LOX IMVI
[19] = test system: Malme-3M
[20] = test system: HOP-62
[21] = test system: TK-10
[22] = test system: HCC 2998
[23] = test system: HT-29
[24] = test system: UACC-257
[25] = test system: UO-31
[26] = test system: U-251
[27] = test system: UACC-62
[28] = test system: ACHN
[29] = test system: LXFL 529
[30] = test system: XF498
[31] = test system: KM-20L2
[32] = test system: SK-MEL-28
[33] = test system: RPMI-8226
[34] = test system: NCI-H23
[35] = test system: SNB-19
[36] = test system: CAKI-1
[37] = test system: A549
[38] = test system: M19-MEL
[39] = test system: NCI-H460
[40] = test system: DMS-114
[41] = test system: SK-MEL-5
[42] = test system: OVCAR-8
[43] = test system: KM12
[44] = test system: M14
[45] = test system: SW-620
[46] = test system: NCI-H522
[47] = test system: COLO 205
[48] = test system: K562
[49] = test system: IGROV-1
[50] = test system: HOP-92
[51] = test system: HL-60
[52] = test system: EKVX
[53] = test system: DLD-1
[54] = test system: SK-MEL-2
[55] = test system: MOLT-4
[56] = test system: RXF 393
[57] = test system: SR

Measured: GI50

Nc1ccc(C(=O)NN2C(=O)C(Cl)C2c2cc(Br)ccc2O)cc1 (stereo unspecified)
> 100 µM: [5]
inactive: [1] > 100 µM | [2] 62.1 µM | [3] > 100 µM | [4] 50.5 µM | [6] 80.4 µM | [7] > 100 µM | [8] > 100 µM | [9] > 100 µM | [10] > 100 µM | [11] 15.9 µM | [12] 78.9 µM | [13] > 100 µM | [14] > 100 µM | [15] > 100 µM | [16] > 100 µM | [17] > 100 µM | [18] 41.2 µM | [19] > 100 µM | [20] > 100 µM | [21] > 100 µM | [22] > 100 µM | [23] 64.6 µM | [24] > 100 µM | [25] > 100 µM | [26] 32.6 µM | [27] > 100 µM | [28] > 100 µM | [29] > 100 µM | [30] > 100 µM | [31] > 100 µM | [32] > 100 µM | [33] > 100 µM | [34] > 100 µM | [35] > 100 µM | [36] > 100 µM | [37] > 100 µM | [38] > 100 µM | [39] > 100 µM | [40] 44.5 µM | [41] > 100 µM | [42] > 100 µM | [43] > 100 µM | [44] > 100 µM | [45] > 100 µM | [46] 22.4 µM | [47] > 100 µM | [48] 70.1 µM | [49] 36.5 µM | [50] > 100 µM | [51] 30.1 µM | [52] > 100 µM | [53] > 100 µM

CCCCCCCCCCCOc1ccc(C(=O)C(=O)c2ccc(OCCCCCCCCCCC)c(OCCCCCCCCCCC)c2)cc1OCCCCCCCCCCC
> 100 µM: [5]
inactive: [1] > 100 µM | [54] > 100 µM | [2] > 100 µM | [3] > 100 µM | [4] > 100 µM | [6] > 100 µM | [7] > 100 µM | [8] > 100 µM | [9] > 100 µM | [10] > 100 µM | [11] > 100 µM | [12] > 100 µM | [13] > 100 µM | [14] 31.3 µM | [15] > 100 µM | [16] > 100 µM | [17] > 100 µM | [18] > 100 µM | [19] > 100 µM | [20] > 100 µM | [21] > 100 µM | [22] > 100 µM | [23] > 100 µM | [24] > 100 µM | [25] > 100 µM | [26] > 100 µM | [27] > 100 µM | [28] > 100 µM | [29] > 100 µM | [30] > 100 µM | [31] > 100 µM | [32] > 100 µM | [33] > 100 µM | [34] > 100 µM | [35] > 100 µM | [36] > 100 µM | [37] > 100 µM | [55] 80.7 µM | [38] > 100 µM | [39] > 100 µM | [40] > 100 µM | [41] > 100 µM | [42] > 100 µM | [43] > 100 µM | [44] > 100 µM | [45] > 100 µM | [46] > 100 µM | [47] > 100 µM | [48] > 100 µM | [49] > 100 µM | [51] > 100 µM | [52] > 100 µM | [53] > 100 µM

Cc1ccc(/C=N/C23CC4CC(CC(C4)C2)C3)cc1
> 100 µM: [5]
inactive: [1] > 100 µM | [54] 85.7 µM | [3] > 100 µM | [4] > 100 µM | [56] > 100 µM | [6] > 100 µM | [7] > 100 µM | [8] > 100 µM | [9] > 100 µM | [10] > 100 µM | [11] > 100 µM | [12] > 100 µM | [13] > 100 µM | [14] 44.8 µM | [15] > 100 µM | [16] > 100 µM | [17] > 100 µM | [18] > 100 µM | [19] 25.1 µM | [20] > 100 µM | [21] > 100 µM | [22] > 100 µM | [23] > 100 µM | [24] > 100 µM | [26] > 100 µM | [28] > 100 µM | [30] 83 µM | [31] > 100 µM | [32] > 100 µM | [33] > 100 µM | [34] > 100 µM | [36] > 100 µM | [37] > 100 µM | [55] > 100 µM | [38] > 100 µM | [39] > 100 µM | [40] 27.5 µM | [41] 84.1 µM | [42] > 100 µM | [43] > 100 µM | [57] > 100 µM | [44] > 100 µM | [45] > 100 µM | [47] > 100 µM | [48] > 100 µM | [49] > 100 µM | [51] > 100 µM | [52] > 100 µM
